These results are taken from PubChem BioAssay (NCI).

Some test systems named below: ACHN renal; NCI-H522 lung; OVCAR-3 ovarian; LOX IMVI melanoma; UACC-62 melanoma; EKVX NSCLC; SK-MEL-28 melanoma; OVCAR-5 ovarian; HL-60(TB) leukemia; M14 melanoma.
Assay in all cases: growth of human tumour cells (NCI), 48 h

Each structure is given as a SMILES string.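 Assay format: 96-well plates, 48-hour exposure. GI50: concentration for 50% inhibition of growth. The concentration for full growth arrest is given as TGI.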

Regarding `O=C1CCCc2c(O)ccc(O)c21`, the TGI in the experiment with ACHN renal was greater than 100 µM; in the experiment with NCI-H522 lung, 25.7 µM; in the experiment with OVCAR-3 ovarian, greater than 100 µM; in the experiment with LOX IMVI melanoma, greater than 100 µM; with UACC-62 melanoma, greater than 100 µM; with EKVX NSCLC, greater than 100 µM. In addition, the TGI was greater than 100 µM with SK-MEL-28 melanoma, greater than 100 µM in the experiment with OVCAR-5 ovarian, 53.5 µM with HL-60(TB) leukemia and greater than 100 µM in the experiment on M14 melanoma.

As to `COc1ccc(-c2nc(N)nc(-c3cc(C)ccc3O)c2Cl)cc1`, the TGI with ACHN renal was greater than 100 µM; in the experiment with NCI-H522 lung it was greater than 100 µM; in the experiment on OVCAR-3 ovarian it was 89.8 µM; in the experiment with LOX IMVI melanoma, greater than 100 µM; with UACC-62 melanoma, greater than 100 µM; in the experiment on EKVX NSCLC, greater than 100 µM. Further, the TGI in the experiment with SK-MEL-28 melanoma, in the experiment on OVCAR-5 ovarian, in the experiment with HL-60(TB) leukemia and with M14 melanoma was greater than 100 µM each time.

As for `Fc1cc(Nc2ccc3c(OCCCN4CCOCC4)cccc3n2)ccc1Cl`, the GI50 with ACHN renal was 3.09 µM; in the experiment on NCI-H522 lung, 1.72 µM; in the experiment on OVCAR-3 ovarian, 3.08 µM; in the experiment on LOX IMVI melanoma it was 1.71 µM; in the experiment with UACC-62 melanoma it was 2.32 µM; in the experiment with EKVX NSCLC, 2.37 µM. Further, the GI50 was 1.82 µM with SK-MEL-28 melanoma, 2.13 µM in the experiment on OVCAR-5 ovarian, 2.68 µM in the experiment with HL-60(TB) leukemia and 2.05 µM with M14 melanoma. Also, the TGI with ACHN renal was 10.8 µM; in the experiment on NCI-H522 lung, 3.35 µM; with OVCAR-3 ovarian it was 10.1 µM; in the experiment on LOX IMVI melanoma, 3.17 µM; with UACC-62 melanoma, 5.61 µM; in the experiment on EKVX NSCLC, 6.2 µM. Besides, the TGI in the experiment with SK-MEL-28 melanoma was determined as 3.56 µM; with OVCAR-5 ovarian it was 4.88 µM; in the experiment with HL-60(TB) leukemia, 7.77 µM; with M14 melanoma, 4.42 µM.

As to `Cc1ccc(NC(=O)CCC(=O)C(C#N)c2ccc(Cl)cc2)cc1C` (stereo not given), the TGI in the experiment on ACHN renal, in the experiment on NCI-H522 lung, in the experiment with OVCAR-3 ovarian, in the experiment on LOX IMVI melanoma, with UACC-62 melanoma and in the experiment on EKVX NSCLC was greater than 100 µM each time. Besides, the TGI with SK-MEL-28 melanoma, in the experiment on OVCAR-5 ovarian, in the experiment on HL-60(TB) leukemia and in the experiment with M14 melanoma was greater than 100 µM throughout.

Consider `O=C(N/N=C\c1cc(Cl)ccc1O)N/N=C/c1cc(Cl)ccc1O`, for which the GI50 was 1.17 µM in the experiment with ACHN renal; 0.616 µM in the experiment with NCI-H522 lung; 2.12 µM in the experiment on OVCAR-3 ovarian; 2.14 µM in the experiment with LOX IMVI melanoma; 0.918 µM with UACC-62 melanoma; 7.83 µM with EKVX NSCLC. The GI50 with SK-MEL-28 melanoma is greater than 100 µM; with OVCAR-5 ovarian, greater than 100 µM; with HL-60(TB) leukemia, 6.22 µM; in the experiment on M14 melanoma, 5.24 µM. Besides, the TGI with ACHN renal was greater than 100 µM; in the experiment with NCI-H522 lung, 19 µM; in the experiment on OVCAR-3 ovarian it was greater than 100 µM; in the experiment with LOX IMVI melanoma, greater than 100 µM; in the experiment on UACC-62 melanoma it was greater than 100 µM; in the experiment with EKVX NSCLC it was greater than 100 µM. The TGI in the experiment with SK-MEL-28 melanoma, in the experiment with OVCAR-5 ovarian, in the experiment on HL-60(TB) leukemia and in the experiment with M14 melanoma was greater than 100 µM each time.

With `Cc1ccc(C)c(NC(=O)CCc2n[nH]c(=S)o2)c1`, the TGI in the experiment on ACHN renal, in the experiment on NCI-H522 lung, with OVCAR-3 ovarian, in the experiment on LOX IMVI melanoma, in the experiment on UACC-62 melanoma and in the experiment on EKVX NSCLC was greater than 100 µM in each case. Moreover, the TGI with SK-MEL-28 melanoma, with OVCAR-5 ovarian, in the experiment with HL-60(TB) leukemia and in the experiment on M14 melanoma was greater than 100 µM each time.

In the case of `Cc1ccc(NC(=O)NC23CC4CC(CC(F)(C4)C2)C3)cc1`, the TGI in the experiment with ACHN renal, in the experiment on NCI-H522 lung, in the experiment on OVCAR-3 ovarian, in the experiment with LOX IMVI melanoma, in the experiment on UACC-62 melanoma and in the experiment with EKVX NSCLC was greater than 100 µM in each case. The TGI in the experiment with SK-MEL-28 melanoma, in the experiment with OVCAR-5 ovarian, with HL-60(TB) leukemia and with M14 melanoma was greater than 100 µM throughout.

Consider `NC(=NC1C2CC3CC(C2)CC1C3)Nc1ccc(I)cc1` (stereo not given), for which the GI50 with ACHN renal is 2.92 µM; with NCI-H522 lung, 2.63 µM; in the experiment on OVCAR-3 ovarian it was 3.97 µM; in the experiment on LOX IMVI melanoma, 1.78 µM; in the experiment with UACC-62 melanoma it was 2.88 µM; in the experiment with EKVX NSCLC it was 3.43 µM. The GI50 was 2.53 µM in the experiment with SK-MEL-28 melanoma, 4.5 µM in the experiment with OVCAR-5 ovarian, 6.43 µM with HL-60(TB) leukemia and 2.08 µM in the experiment with M14 melanoma. For the same molecule, the TGI in the experiment on ACHN renal was 9.45 µM; in the experiment on NCI-H522 lung, 11.2 µM; in the experiment with OVCAR-3 ovarian, 15 µM; in the experiment on LOX IMVI melanoma it was 3.51 µM; in the experiment on UACC-62 melanoma, 9.33 µM; with EKVX NSCLC it was 14.3 µM. Moreover, the TGI was found to be 7.58 µM in the experiment on SK-MEL-28 melanoma, 21.7 µM in the experiment on OVCAR-5 ovarian, 27.2 µM in the experiment on HL-60(TB) leukemia and 5.04 µM in the experiment on M14 melanoma.

Consider `CC(=O)OCC1OC(O[C@@H]2C[C@H]3C(C)(C)[C@H](OC(C)=O)CC[C@]3(C)[C@H]3CC[C@@H]4[C@]5(CC[C@@]4(C)[C@@]32C)O[C@@H]([C@H](O)C(C)(C)O)C[C@@H]5C)C(O)C(O)C1O` (stereo not given in full), for which the GI50 in the experiment on ACHN renal is 9.23 µM; in the experiment with NCI-H522 lung, 7.1 µM; in the experiment with OVCAR-3 ovarian it was 7.05 µM; in the experiment with LOX IMVI melanoma it was 3.61 µM; with UACC-62 melanoma it was 6.36 µM; in the experiment on EKVX NSCLC it was 9.52 µM. Also, the GI50 with SK-MEL-28 melanoma was 10.2 µM; in the experiment on OVCAR-5 ovarian it was 5.07 µM; in the experiment with HL-60(TB) leukemia, 2.93 µM; in the experiment with M14 melanoma, 5.01 µM. Also, the TGI worked out at 21.3 µM in the experiment with ACHN renal; 21.2 µM in the experiment with NCI-H522 lung; 20.5 µM in the experiment on OVCAR-3 ovarian; 15.6 µM with LOX IMVI melanoma; 19.7 µM in the experiment on UACC-62 melanoma; 28.5 µM in the experiment on EKVX NSCLC. Also, the TGI in the experiment with SK-MEL-28 melanoma turned out to be 24 µM; in the experiment with OVCAR-5 ovarian it was 17.5 µM; in the experiment on HL-60(TB) leukemia, 10.2 µM; in the experiment on M14 melanoma it was 17.6 µM.
